From patent publication US9963444B2, “N-acylethanolamine hydrolyzing acid amidase (NAAA) inhibitors and their use thereof” (Northeastern University, priority 2014, dated 2018)

The molecules below were run against hNAAA (Homo sapiens (Human), UniProt Q02083) (assay: Fluorescence-based NAAA inhibition assay with fluorogenic substrate PAMCA). Details: not given.
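Also: compound preincubated 15 min at room temperature with hNAAA, then PAMCA added at 5 µM, reacted 120 min at 37 °C, AMC release read by fluorescence (ex 360, em 460 nm).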

Sequence of hNAAA (Q02083 29-125): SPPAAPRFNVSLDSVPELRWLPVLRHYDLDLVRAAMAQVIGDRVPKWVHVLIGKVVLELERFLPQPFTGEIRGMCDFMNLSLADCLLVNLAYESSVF
Sequence of hNAAA (Q02083 126-359): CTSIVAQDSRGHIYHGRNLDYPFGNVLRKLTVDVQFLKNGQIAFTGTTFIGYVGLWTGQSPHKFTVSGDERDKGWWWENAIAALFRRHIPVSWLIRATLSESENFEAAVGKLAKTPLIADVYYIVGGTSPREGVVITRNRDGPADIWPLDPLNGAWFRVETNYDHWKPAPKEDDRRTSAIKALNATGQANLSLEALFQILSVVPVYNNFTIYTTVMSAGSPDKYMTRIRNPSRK

| IC50 [µM] | SMILES |
| --- | --- |
| 0.01 to 0.1 | N#CN1CC(OCc2ccc(-c3cccc(C(F)(F)F)c3)cc2)C1 [Example 70, 3-((3′-(Trifluoromethyl)-[1,1′-biphenyl]-4-yl)methoxy)azetidine-1-carbonitrile] |
| 0.01 to 0.1 | COc1ncccc1-c1ccc(COC2CN(C#N)C2)cc1 [Example 74, 3-((4-(2-Methoxypyridin-3-yl)benzyl)oxy)azetidine-1-carbonitrile] |
| 0.11 to 1 | N#CN1CC[C@H](OCc2ccc(-c3ccccc3)cc2)C1 [Example 104, (S)-3-([1,1′-Biphenyl]-4-ylmethoxy)pyrrolidine-1-carbonitrile] |
| 0.01 to 0.1 | COc1cccc(-c2ccc(COC3CN(C#N)C3)c(F)c2)c1 [Example 78, 3-((3-Fluoro-3′-methoxy-[1,1′-biphenyl]-4-yl)methoxy)azetidine-1-carbonitrile] |
| 0.01 to 0.1 | COc1ccc(-c2cc(Oc3ccccc3)ccc2COC2CN(C#N)C2)cc1 [Example 90, 3-((4′-Methoxy-5-phenoxy-[1,1′-biphenyl]-2-yl)methoxy)azetidine-1-carbonitrile] |
| 0.01 to 0.1 | N#CN1CC(OCc2ccc(Oc3ccccc3)cc2)C1 [Example 81, 3-((4-Phenoxybenzyl)oxy)azetidine-1-carbonitrile] |
| 0.01 to 0.1 | CN(Cc1ccc(-c2ccccc2)cc1)C1CN(C#N)C1 [Example 103, 3-(([1,1′-Biphenyl]-4-ylmethyl)(methyl)amino)azetidine-1-carbonitrile] |
| 0.01 to 0.1 | COc1cccc(-c2ccc(C3(COC4CN(C#N)C4)CC3)cc2)c1 [Example 82, 3-((1-(3′-Methoxy-[1,1′-biphenyl]-4-yl)cyclopropyl)methoxy)azetidine-1-carbonitrile] |
| 0.01 to 0.1 | N#CN1CC(OCc2ccc(-c3ccc4c(c3)OCCO4)cc2)C1 [Example 84, 3-((4-(2,3-Dihydrobenzo[b][1,4]dioxin-6-yl)benzyl)oxy)azetidine-1-carbonitrile] |
| 0.01 to 0.1 | COc1cccc(-c2ccc(C(OC3CN(C#N)C3)c3ccccc3)cc2)c1 (stereo not shown) [Example 100, 3-((3′-Methoxy-[1,1′-biphenyl]-4-yl)(phenyl)methoxy)azetidine-1-carbonitrile] |
| 0.01 to 0.1 | COc1ccccc1-c1ccc(COC2CN(C#N)C2)cc1 [Example 75, 3-((2′-Methoxy-[1,1′-biphenyl]-4-yl)methoxy)azetidine-1-carbonitrile] |
| 0.01 to 0.1 | COc1cccc(-c2ccc(COC3(c4ccccc4)CN(C#N)C3)cc2)c1 [Example 96, 3-((3′-Methoxy-[1,1′-biphenyl]-4-yl)methoxy)-3-phenylazetidine-1-carbonitrile] |
| 0.01 to 0.1 | COc1cccc(-c2ccc(COC3CN(C#N)C3)c(OC)c2)c1 [Example 80, 3-((3,3′-Dimethoxy-[1,1′-biphenyl]-4-yl)methoxy)azetidine-1-carbonitrile] |
| 0.01 to 0.1 | Cn1cc(-c2ccc(C(OC3CN(C#N)C3)c3ccccc3)cc2)cn1 (stereo not shown) [Example 102, 3-((4-(1-Methyl-1H-pyrazol-4-yl)phenyl)(phenyl)methoxy)azetidine-1-carbonitrile] |
| 0.01 to 0.1 | N#CN1CC[C@@H](OCc2ccc(-c3ccccc3)cc2)C1 [Example 105, (R)-3-([1,1′-biphenyl]-4-ylmethoxy)pyrrolidine-1-carbonitrile] |
| 0.01 to 0.1 | N#CN1CC(OCc2cccc(-c3ccccc3)c2)C1 [Example 66, 3-([1,1′-Biphenyl]-3-ylmethoxy)azetidine-1-carbonitrile] |
| 0.01 to 0.1 | N#Cc1ccc(-c2cc(Oc3ccccc3)ccc2COC2CN(C#N)C2)cc1 [Example 92, 3-((4′-Cyano-5-phenoxy-[1,1′-biphenyl]-2-yl)methoxy)azetidine-1-carbonitrile] |

| SMILES | IC50 [µM] |
| --- | --- |
| S=C=NCCCOCc1ccc(-c2ccccc2)cc1 [Example 25, 4-((3-Isothiocyanatopropoxy)methyl)-1,1′-biphenyl] | 0.01 to 0.1 |
| S=C=N[C@H]1C[C@@H](OCc2ccc(Oc3ccccc3)cc2Br)C1 [Example 49, 2-Bromo-1-(((1S,3S)-3-isothiocyanatocyclobutoxy)methyl)-4-phenoxybenzene] | 0.11 to 1 |
| S=C=NC[C@H]1C[C@@H](OCc2ccc(-c3ccccc3)cc2)C1 [Example 57, 4-(((1S,3S)-3-(isothiocyanatomethyl)cyclobutoxy)methyl)-1,1′-biphenyl] | 0.11 to 1 |
| Cc1ccc(-c2ccc(CO[C@H]3C[C@@H](N=C=S)C3)cc2)cc1 [Example 29, 4-(((1S,3S)-3-Isothiocyanatocyclobutoxy)methyl)-4′-methyl-1,1′-biphenyl] | 0.01 to 0.1 |
| S=C=NCCCCCCCCCCc1ncccn1 [Example 20, 2-(10-Isothiocyanatodecyl)pyrimidine] | 0.01 to 0.1 |
| S=C=N[C@H]1C[C@@H](OCc2ccc(-c3ccccc3)cc2)C1 [Example 31, 4-(((1S,3S)-3-isothiocyanatocyclobutoxy)methyl)-1,1′-biphenyl] | 0.11 to 1 |
| Fc1ccc(-c2ccc(CO[C@H]3C[C@@H](N=C=S)C3)c(F)c2)cc1 [Example 32, 3,4′-Difluoro-4-(((1S,3S)-3-isothiocyanatocyclobutoxy)methyl)-1,1′-biphenyl] | 0.11 to 1 |
| COc1cccc(-c2ccc(CO[C@H]3C[C@@H](N=C=S)C3)cc2)c1 [Example 35, 4′-(((1S,3S)-3-isothiocyanatocyclobutoxy)methyl)-3-methoxy-1,1′-biphenyl] | 0.01 to 0.1 |
| CCOc1ccc(-c2ccc(CO[C@H]3C[C@@H](N=C=S)C3)c(F)c2)cc1F [Example 36, 4-Ethoxy-3,3′-difluoro-4′-(((1S,3S)-3-isothiocyanatocyclobutoxy)methyl)-1,1′-biphenyl] | 0.01 to 0.1 |
| Cc1ccc(-c2ccc(CO[C@H]3C[C@H](N=C=S)C3)cc2)cc1 [Example 28, 4-(((1R,3R)-3-Isothiocyanatocyclobutoxy)methyl)-4′-methyl-1,1′-biphenyl] | 0.11 to 1 |
| S=C=NCCCCCCCCCCCc1ccccc1 [Example 21, (11-Isothiocyanatoundecyl)benzene] | 0.01 to 0.1 |
| COc1ccc(-c2ccc(O[C@H]3C[C@@H](N=C=S)C3)cc2)cc1F [Example 52, 3-Fluoro-4′-((1S,3S)-3-isothiocyanatocyclobutoxy)-4-methoxy-1,1′-biphenyl] | 0.01 to 0.1 |

Same assay, conditions: read-out: NAAA Inhibition IC50 μM; purified hNAAA, PAMCA 5 μM, pH 4.5

| SMILES | IC50 [µM] |
| --- | --- |
| Cn1cc(-c2ccc(COC3CC(N=C=S)C3)c(F)c2)cn1 [Example 46, 4-(3-Fluoro-4-(((1R,3R)-3-isothiocyanatocyclobutoxy)methyl)phenyl)-1-methyl-1H-pyrazole] | 0.11 to 1 |
| Cc1cncc(Oc2ccc(CN=C=S)cc2)n1 [Example 14, 2-(4-(Isothiocyanatomethyl)phenoxy)-6-methylpyrazine] | > 1 |
| COc1ncccc1-c1ccc(COC2CC(N=C=S)C2)c(F)c1 [Example 41, 3-(3-Fluoro-4-(((1R,3R)-3-isothiocyanatocyclobutoxy)methyl)phenyl)-2-methoxypyridine] | 0.11 to 1 |
| N#Cc1cccc(C(=O)OCCCCCc2ccccc2)n1 [Example 114, 5-phenylpentyl 6-cyanopicolinate] | > 1 |
| N#Cc1ccc(OCc2ccc(Oc3ccccc3)cc2Br)cn1 [Example 110, 5-((2-Bromo-4-phenoxybenzyl)oxy)picolinonitrile] | > 1 |
| N#Cc1ncc(OCc2ccc(-c3ccccc3)cc2)cc1F [Example 112, 5-([1,1′-Biphenyl]-4-ylmethoxy)-3-fluoropicolinonitrile] | > 1 |
| N#Cc1ccc(OCc2ccc(-c3ccccc3)cc2)cn1 [Example 111, 5-([1,1′-Biphenyl]-4-ylmethoxy)picolinonitrile] | > 1 |
| COc1ccc(-c2ccc(COC3CC(N=C=S)C3)nc2)cc1F [Example 42, 5-(3-Fluoro-4-methoxyphenyl)-2-(((1R,3R)-3-isothiocyanatocyclobutoxy)methyl)pyridine] | 0.01 to 0.1 |
| N#Cc1ncc(OCCOCCOCc2ccccc2)cn1 [Example 117, 5-(2-(2-(benzyloxy)ethoxy)ethoxy)pyrimidine-2-carbonitrile] | > 1 |
| CN(Cc1ccc(-c2ccc3c(c2)OCO3)cc1)C1CC(N=C=S)C1 [Example 55, (1R,3R)—N-(4-(benzo[d][1,3]dioxol-5-yl)benzyl)-3-isothiocyanato-N-methylcyclobutan-1-amine] | > 1 |
| FC(F)(F)c1cccc(-c2ccc(CO[C@H]3Cc4ccccc4[C@H]3N=C=S)cc2)c1 [Example 61, (1R,2S)-1-isothiocyanato-2-((3′-(trifluoromethyl)-[1,1′-biphenyl]-4-yl)methoxy)-2,3-dihydro-1H-indene] | > 1 |
| COc1cccc(-c2ccc(CO[C@H]3C[C@H](N=C=S)C3)cc2)c1 [Example 34, 4′-(((1R,3R)-3-isothiocyanatocyclobutoxy)methyl)-3-methoxy-1,1′-biphenyl] | > 1 |
| S=C=N[C@@H]1CC[C@@H](OCc2ccc(Br)cc2)C1 [Example 60, 1-Bromo-4-((((1R,3R)-3-isothiocyanatocyclopentyl)oxy)methyl)benzene] | > 1 |
| S=C=NCc1ccc(COc2ccccc2)cc1 [Example 15, 1-(Isothiocyanatomethyl)-4-(phenoxymethyl)benzene] | > 1 |
| S=C=N[C@H]1C[C@@H](OCc2ccc(Oc3ccccc3)cc2-c2ccccc2)C1 [Example 50, 2-(((1S,3S)-3-Isothiocyanatocyclobutoxy)methyl)-5-phenoxy-1,1′-biphenyl] | > 1 |
| Cc1noc(C)c1-c1ccc(COC2CC(N=C=S)C2)c(F)c1 [Example 45, 4-(3-Fluoro-4-(((1R,3R)-3-isothiocyanatocyclobutoxy)methyl)phenyl)-3,5-dimethylisoxazole] | > 1 |
| N#Cc1ncc(F)cc1OCc1ccc(-c2ccccc2)cc1 [Example 113, 3-([1,1′-Biphenyl]-4-ylmethoxy)-5-fluoropicolinonitrile] | > 1 |
| O=C(CCCCCCc1ccc2ccccc2c1)NCCN=C=S [Example 7, N-(2-Isothiocyanatoethyl)-7-(naphthalene-2-yl)heptanamide] | > 1 |
| S=C=NCc1ccc(CN2CCOCC2)cc1 [Example 12, 4-(Morpholinomethyl)benzylisothiocyanate] | > 1 |
| N#C[C@H]1C[C@@H](OCc2ccc(-c3ccccc3)cc2)C1 [Example 108, (1S,3S)-3-([1,1′-biphenyl]-4-ylmethoxy)cyclobutane-1-carbonitrile] | > 1 |
